Assay [1] has as its system anesthetized dogs. In words: renal anesthetized dog screening protocol (renal vasodilator activity test, infusion). Type of assay: in vivo. On the set-up: renal blood flow / renal vascular resistance: dose or concentration left out as unconfirmed. The note with it: for renal vasodilators: primary test period of the screening protocol. An excerpt:
Representative specific results are included in the examples.

Assay [2] has as its system spontaneously hypertensive rats (SHR). Briefly: spontaneously hypertensive rat test, diuretic naturetic assay. The assay is classed as in vivo. How it is done: In this test, male, Okamato-Aoki strain, spontaneously hypertensive rats, aged 16-19 weeks, are fasted, then, the following afternoon, the first dose of test compound is adminstered, along with a 25 ml/kg p.o. load of normal saline. The animals are, then, placed in metabolism cages and urine collected for three hours for analysis. Indirect systolic blood pressure and heart rate are measured by a tail-cuff. An identical second dose of test compound is adminstered. After two hours, blood pressure and heart rate are again tested. The test compound is usually administered p.o. or i.p. in saline with 0.02% ascorbic acid.

The subject of assay [3] is toad bladder. In words: toad bladder anti-ADH assay.
Assay [4] in a line: bradycardic effect (heart rate; test not specified). The note with it: in vivo.
For assay [5], the system named is angiotensin coverting enzyme. In words: angiotensin converting enzyme inhibiting activity. The assay is classed as in vivo. The note with it: at 10 times its renally effective dose.
Assay [6] concerns dopamine-sensitive adenylate cyclase system. In words: dopamine-sensitive adenylate cyclase system in vitro. The assay is classed as biochemical.
The mark [7] stands for this setting: 30 µg/kg/min, 3 anesthetized dogs.
[8] abbreviates: two anesthetized dogs, 3, 30 and 300.
Setting [9] is: accumulative effect at 300 dose, 2 anesthetized dogs.

Counter-ions that a name gives are not always drawn.

Turning to `C[C@H](NC(=O)[C@@H]1CCCN1CC(=O)O)C(=O)N1CCC[C@H]1C(=O)O` [Example 1 barium salt, N-carboxymethyl-L-propyl-L-alanyl-L-proline], in assay [1] (setting [7]), the “decrease in renal vascular resistance” value is given as 15% and the “increase in renal blood flow” value was 21.7%.

`O=C(O)CN1CCC[C@H]1C(=O)N[C@@H](Cc1ccccc1)C(=O)N1CCC[C@H]1C(=O)O` [Example 2 barium salt, N-carboxymethyl-L-prolyl-L-phenylalanyl-L-proline]: the “activity within the parameters of anesthetized dog screening test” value in assay [1] (dog, in vivo) is listed as “not active”.

Regarding `O=C(O)CN1CCC[C@H]1C(=O)N[C@@H](Cc1ccccc1)C(=O)N1CCC[C@H]1C(=O)O` [Example 2 sulfate, N-carboxymethyl-L-prolyl-L-phenylalanyl-L-proline], the renal blood flow entry in assay [1] (30 and 300) is listed as “increased renal blood flow”.

`O=C(O)CN1CCC[C@H]1C(=O)NCCC(=O)N1CCC[C@H]1C(=O)O` [Example 3, N-carboxymethyl-L-prolyi-o-alanyl-L-proline sulfate] came in with a Urine in assay [2] (25 mg/kg i.p., n=3, control 3) of 16 ml/rat. Further, the “K^9” value in assay [2] (25 mg/kg i.p., n=3, control 85.12) is 242.53. Also, in assay [2] (25 mg/kg i.p., n=3, control 126.76), the “Na⊕” value was 676.04. For the same compound, the “Na^l, K° or urine excretion” value in assay [2] (25 and 50 mg/kg i.p.) is “significant increase”. In assay [3], the “toad bladder anti-ADH assay activity” value is recorded as “nor was it active”. Besides, the ED15 in assay [1] (Canis lupus familiaris, iv, anesthetized renal dog protocol, read-out: RVR-ED15) worked out at 0.012 mg/kg. In assay [1] (setting [8]), the renal blood flow result is “increased renal blood flow” and the renal vascular resistance result is reported as “decreased renal vascular resistance”. Moreover, the bradycardic effect entry in assay [4] is “weak bradycardic effect”. The “angiotensin coverting enzyme inhibiting activity” value in assay [5] is given as “did not have angiotensin coverting enzyme inhibiting activity”. Also, in assay [6], the “stimulate or antagonize the dopamine-sensitive adenylate cyclase system” value is listed as “did not stimulate or antagonize”.

For the compound `C[C@H](NC(=O)[C@@H]1CCCN1CCC(=O)O)C(=O)N1CCC[C@H]1C(=O)O` [Example 4, N-(2-carboxyethyl)-L-prolyl-L-alanyl-L-proline], in assay [1] (setting [9]), the “decrease in renal vascular resistance” value amounted to 23% and the “increase in renal blood flow” value turned out to be 34%.

Consider `CC(C(=O)O)N1CCC[C@H]1C(=O)NCCC(=O)N1CCC[C@H]1C(=O)O` (stereo partly drawn) [N-(1-carboxyethyl)-L-propyl-β-alanyl-L-proline, reference compound], for which the renal vasodilators entry in assay [1] is “inactive”.

Turning to `NCCCC[C@H](NC(=O)[C@@H]1CCCN1CC(=O)O)C(=O)N1CCC[C@H]1C(=O)O` [N-carboxymethyl-L-propyl-L-lysyl-L-proline, reference compound], in assay [1], the renal vasodilators result was “inactive”.

Take `O=C(O)CN1CCCC1C(=O)NCC(=O)N1CCC[C@H]1C(=O)O` (stereo partly drawn) [N-carboxymethyl-propyl-glycyl-L-proline, reference compound]: in assay [1], the renal vasodilators result was “inactive”.

The values above are taken from EP0080283B1, “N-carboxyalkylproline-containing tripeptides” (SMITHKLINE BECKMAN CORPORATION, priority 1981, dated 1983).
